Results reported in patent US8980906B2, “Pyridonemorphinan analogs and biological activity on opioid receptors” (Purdue Pharma L.P., priority 2012, dated 2015).
Where two headings read alike, the source gives them in different places.

Legend:
[1] = molecular target: T1, κ-opioid receptor (Homo sapiens (Human), UniProt P41145); assay: κ-opioid receptor [35S]GTPγS functional assay, HEK-293 or CHO cells; type: biochemical; details: for Emax: relative to U69,593, HEK-293 or CHO cells
Protocol: (§1) κ-Opioid Receptor Functional Assay Procedures: Functional [^35S]GTPγS binding assays were conducted as follows. κ opioid receptor membrane solution was prepared by sequentially adding final concentrations of 0.026 μg/μl κ membrane protein (in-house), 10 μg/mL saponin, 3 μM GDP and 0.20 nM [^35S]GTPγS to binding buffer (100 mM NaCl, 10 mM MgCl2, 20 mM HEPES, pH 7.4) on ice. The prepared membrane solution (190 μl/well) was transferred to 96-shallow well polypropylene plates containing 10 μl of 20× concentrated stock solutions of agonist prepared in DMSO. Plates were incubated for 30 min at a temperature of about 25° C. with shaking. Reactions were terminated by rapid filtration onto 96-well Unifilter GF/B filter plates (Perkin Elmer, Shelton, Conn.) using a 96-well tissue harvester (Packard) and followed by three filtration washes with 200 μl ice-cold binding buffer (10 mM NaH2PO4, 10 mM Na2HPO4, pH 7.4). Filter plates were subsequently dried at 50° C. for 2-3 hours. Fifty μl/well scintillation cocktail (Perkin Elmer, Shelton, Conn.) was added and plates were counted in a Packard Top-Count for 1 min/well.
(§2) κ-Opioid Receptor Functional Data: κ GTP EC50 is the concentration of a compound providing 50% of the maximal response for the compound at a κ receptor.
(§3) κ GTP Emax (%) is the maximal effect elicited by a compound relative to the effect elicited by U69,593.
In TABLE 2, activity response of certain Compounds of the Invention to the μ-, δ- and κ-opioid receptors was determined as described above for functional assays using HEK-293 or CHO cells.

[2] = molecular target: T1, κ-opioid receptor; assay: κ-opioid receptor radioligand dose-displacement binding assay ([3H]-U69,593); details: binding affinity, [3H]-U69,593 displacement
Protocol: κ-Opioid Receptor Binding Assay Procedures: Membranes from HEK-293 cells, CHO or U-2 OS cells expressing the recombinant human kappa opioid receptor (κ) were prepared by lysing cells in ice cold hypotonic buffer (2.5 mM MgCl2, 50 mM HEPES, pH 7.4) (10 mL/10 cm dish) followed by homogenization with a tissue grinder/Teflon pestle. Membranes were collected by centrifugation at 30,000×g for 15 min at 4° C. and pellets were resuspended in hypotonic buffer to a final concentration of 1-3 mg/mL. Protein concentrations were determined using the BioRad protein assay reagent with bovine serum albumen as standard, Aliquots of κ receptor membranes were stored at […].
Radioligand dose displacement assays used 0.4 nM [^3H]-U69,593 (GE Healthcare, Piscataway, N.J.; 40 Ci/mmole) with 15 μg membrane protein (recombinant κ opioid receptor expressed in HEK 293 cells; in-house prep) in a final volume of 200 μl binding buffer (5% DMSO, 50 mM Trizma base, pH 7.4). Non-specific binding was determined in the presence of 10 μM unlabeled naloxone or U69,593. All reactions were performed in 96-well polypropylene plates for 1 hour at a temperature of about 25° C. Binding reactions were terminated by rapid filtration onto 96-well Unifilter GF/C filter plates (Perkin Elmer, Shelton, Conn.) presoaked in 0.5% polyethylenimine (Sigma). Harvesting was performed using a 96-well tissue harvester (Perkin Elmer, Shelton, Conn.) followed by five filtration washes with 200 μl ice-cold binding buffer. Filter plates were subsequently dried at 50° C. for 1-2 hours. Fifty μl/well scintillation cocktail (Perkin Elmer, Shelton, Conn.) was added and plates were counted in a Packard Top-Count for 1 min/well.

[3] = molecular target: T2, μ-opioid receptor (Homo sapiens (Human), UniProt P35372); assay: μ-opioid receptor radioligand dose-displacement binding assay ([3H]-diprenorphine); details: binding affinity
Protocol: μ-Opioid Receptor Binding Assay Procedures: Radioligand dose-displacement binding assays for μ-opioid receptors used 0.3 nM [^3H]-diprenorphine (Perkin Elmer, Shelton, Conn.), with […] membrane protein/well in a final volume of 500 μl binding buffer (10 mM MgCl2, 1 mM EDTA, 5% DMSO, 50 mM HEPES, pH 7.4). Reactions were carried out in the absence or presence of increasing concentrations of unlabeled naloxone. All reactions were conducted in 96-deep well polypropylene plates for 2 hours at room temperature. Binding reactions were terminated by rapid filtration onto 96-well Unifilter GF/C filter plates (Perkin Elmer, Shelton, Conn.), presoaked in 0.5% polyethylenimine using a 96-well tissue harvester (Perkin Elmer, Shelton, Conn.) followed by performing three filtration washes with 500 μl of ice-cold binding buffer. Filter plates were subsequently dried at 50° C. for 2-3 hours. BetaScint scintillation cocktail (Perkin Elmer, Shelton, Conn.) was added (50 μl/well), and plates were counted using a Packard Top-Count for 1 min/well. The data were analyzed using the one-site competition curve fitting functions in GraphPad PRISM™ v. 3.0 or higher (San Diego, Calif.), or an in-house function for one-site competition curve-fitting.

[4] = molecular target: T2, μ-opioid receptor; assay: μ-opioid receptor [35S]GTPγS functional assay, HEK-293 or CHO cells; type: biochemical; details: for Emax: relative to DAMGO, HEK-293 or CHO cells
[5] = molecular target: T2, μ-opioid receptor; assay: μ-opioid receptor [35S]GTPγS functional assay, U-2 OS cells; type: biochemical
Protocol: μ-Opioid Receptor Functional Assay Procedures: [^35S]GTPγS functional assays were conducted using freshly thawed μ-receptor membranes prepared in-house from a cell line expressing recombinant μ opioid receptor in a HEK-293, CHO or U-2 OS cell background, or purchased from a commercial source (Perkin Elmer, Shelton, Conn.; or DiscovRx, Fremont, Calif.). Assay reactions were prepared by sequentially adding the following reagents to binding buffer (100 mM NaCl, 10 mM MgCl2, 20 mM HEPES, pH 7.4) on ice (final concentrations indicated): membrane protein (0.026 mg/mL), saponin ([…]), GDP ([…]) and [^35S]GTPγS (0.20 nM; Perkin Elmer, Shelton, Conn.). The prepared membrane solution (190 μl/well) was transferred to 96-shallow well polypropylene plates containing 10 μl of 20× concentrated stock solutions of the agonist [D-Ala^2, N-methyl-Phe^4 Gly-ol^5]-enkephalin (DAMGO) prepared in dimethyl sulfoxide (DMSO). Plates were incubated for 30 min at about 25° C. with shaking. Reactions were terminated by rapid filtration onto 96-well Unifilter GF/B filter plates (Perkin Elmer, Shelton, Conn.) using a 96-well tissue harvester (Perkin Elmer, Shelton, Conn.) followed by three filtration washes with 200 μl of ice-cold wash buffer (10 mM NaH2PO4, 10 mM Na2HPO4, pH 7.4). Filter plates were subsequently dried at 50° C. for 2-3 hours. BetaScint scintillation cocktail (Perkin Elmer, Shelton, Conn.) was added (50 μl/well) and plates were counted using a Packard Top-Count for 1 min/well. Data were analyzed using the sigmoidal dose-response curve fitting functions in GraphPad PRISM v. 3.0, or an in-house function for non-linear, sigmoidal dose-response curve-fitting.
μ-Opioid Receptor Functional Data: μ GTP EC50 is the concentration of a compound providing 50% of the maximal response for the compound at a μ-opioid receptor.
μ GTP Emax (%) is the maximal effect elicited by a compound relative to the effect elicited by DAMGO, a standard μ agonist. Generally, the μ GTP Emax (%) value measures the efficacy of a compound to treat or prevent pain or other Conditions.
(§4) The following TABLE 3 provides results on the activity response of certain Compounds of the Invention at the μ- and κ-opioid receptors determined as described above using U-2 OS cells.

[6] = molecular target: T1, κ-opioid receptor; assay: κ-opioid receptor [35S]GTPγS functional assay, U-2 OS cells; type: biochemical
Protocol: as §1, §2, §3, §4

[7] = [3H]-diprenorphine displacement, read-out: Ki (nM) Opioid Receptor μ

Compound	EC50 [1] [nM]	Emax [1] [%]	Ki [2] [nM]	Ki [3, 7] [nM]	EC50 [4] [nM]	Emax [4] [%]	EC50 [5] [µM]	Emax ([5]; relative to DAMGO, U-2 OS cells) [%]	EC50 [6] [µM]	Emax ([6]; relative to U69,593, U-2 OS cells) [%]	Ki ([3]; bound given in μM, read-out: Ki Opioid Receptor μ) [nM]
NC(=O)[C@@H]1CCCN1C(=O)c1cc2c([nH]c1=O)C[C@]13CCN(CC4CC4)[C@H](Cc4ccc(O)cc41)[C@@H]3C2 [Compound 25, (S)-1-((6R,6aR,12aS)-15-(cyclopropylmethyl)-2-hydroxy-10-oxo-6,6a,7,10,11,12-hexahydro-5H-6,12a-(epiminoethano)naphtho[2,1-g]quinoline-9-carbonyl)pyrrolidine-2-carboxamide]	4.42 ± 0.85	44.7 ± 2.73	0.32 ± 0.06	0.41 ± 0.05	4.87 ± 0.52	29.3 ± 1.45	–	–	–	–	–
COc1ccc2c(c1)[C@]13CCN(Cc4ccccc4)[C@H](C2)[C@]1(O)Cc1cc(C(N)=O)c(=O)[nH]c1C3 [Compound 31, (6R,6aS,12aR)-15-benzyl-6a-hydroxy-2-methoxy-10-oxo-6,6a,7,10,11,12-hexahydro-5H-6,12a-(epiminoethano)naphtho[2,1-g]quinoline-9-carboxamide]	–	–	1580 ± 308	5590 ± 696	–	–	> 20	10.7 ± 5.21	–	–	–
CN1CC[C@]23Cc4[nH]c(=O)c(C(N)=O)cc4C[C@@]2(O)[C@H]1Cc1ccc(O)cc13 [Compound 29, (6R,6aS,12aR)-15-(methyl)-2,6a-dihydroxy-10-oxo-6,6a,7,10,11,12-hexahydro-5H-6,12a-(epiminoethano)naphtho[2,1-g]quinoline-9-carboxamide]	–	–	25.3 ± 4.86	651 ± 101	–	–	–	–	–	–	–
COC(=O)c1cc2c([nH]c1=O)C[C@]13CCN(Cc4ccccc4)[C@H](Cc4ccc(OC)cc41)[C@]3(O)C2 [Compound 30, (6R,6aS,12aR)-methyl 15-benzyl-6a-hydroxy-2-methoxy-10-oxo-6,6a,7,10,11,12-hexahydro-5H-6,12a-(epiminoethano)naphtho[2,1-g]quinoline-9-carboxylate]	–	–	599 ± 90	3940 ± 860	–	–	–	–	> 20	1	–
COC(=O)c1cc2c([nH]c1=O)C[C@]13CCN(C)[C@H](Cc4ccc(OC)cc41)[C@]3(O)C2 [Compound 27, (6R,6aS,12aR)-methyl 15-(methyl)-6a-hydroxy-2-methoxy-10-oxo-6,6a,7,10,11,12-hexahydro-5H-6,12a-(epiminoethano)naphtho[2,1-g]quinoline-9-carboxylate]	–	–	3080 ± 128	–	–	–	–	–	–	–	> 20000
NC(=O)c1cc2c([nH]c1=O)C[C@]13CCN(CC4CC4)[C@H](Cc4ccc(O)cc41)[C@@H]3C2 [Compound 7, (6R,6aR,12aS)-15-(cyclopropylmethyl)-2-hydroxy-10-oxo-6,6a,7,10,11,12-hexahydro-5H-6,12a-(epiminoethano)naphtho[2,1-g]quinoline-9-carboxamide]	33.9 ± 3.73	31.3 ± 3.18	0.19 ± 0.04	4.55 ± 1.26	> 20000	–	–	–	–	–	–
CC(C)C[C@H](NC(=O)c1cc2c([nH]c1=O)C[C@]13CCN(CC4CC4)[C@H](Cc4ccc(O)cc41)[C@@H]3C2)C(N)=O [Compound 24, (6R,6aR,12aS)—N—((S)-1-amino-4-methyl-1-oxopentan-2-yl)-15-(cyclopropylmethyl)-2-hydroxy-10-oxo-6,6a,7,10,11,12-hexahydro-5H-6,12a-(epiminoethano)naphtho[2,1-g]quinoline-9-carboxamide]	2.54 ± 0.55	23 ± 2.04	0.96 ± 0.1	3.95 ± 1.84	5.2 ± 1.35	37 ± 7.02	–	–	–	–	–
NC(=O)C[C@H](NC(=O)c1cc2c([nH]c1=O)C[C@]13CCN(CC4CC4)[C@H](Cc4ccc(O)cc41)[C@@H]3C2)C(N)=O [Compound 26]	8.87 ± 1.35	39 ± 2.08	0.86 ± 0.23	0.71 ± 0.11	7.54 ± 1.97	38 ± 1.15	–	–	–	–	–
NC(=O)[C@H](Cc1ccccc1)NC(=O)c1cc2c([nH]c1=O)C[C@]13CCN(CC4CC4)[C@H](Cc4ccc(O)cc41)[C@@H]3C2 [Compound 23, (6R,6aR,12aS)—N—((S)-1-amino-1-oxo-3-phenylpropan-2-yl)-15-(cyclopropylmethyl)-2-hydroxy-10-oxo-6,6a,7,10,11,12-hexahydro-5H-6,12a-(epiminoethano)naphtho[2,1-g]quinoline-9-carboxamide]	8.35 ± 2.25	25.7 ± 4.18	0.31 ± 0.05	1.86 ± 0.65	3.19 ± 0.46	41.3 ± 5.04	–	–	–	–	–
COc1ccc2c(c1)[C@]13CCN(C)[C@H](C2)[C@]1(O)Cc1cc(C(N)=O)c(=O)[nH]c1C3 [Compound 28, (6R,6aS,12aR)-15-(methyl)-6a-hydroxy-2-methoxy-10-oxo-6,6a,7,10,11,12-hexahydro-5H-6,12a-(epiminoethano)naphtho[2,1-g]quinoline-9-carboxamide]	–	–	12300	14400 ± 4140	–	–	–	–	–	–	–
